Assay results from patent publication US20130040908A1, “SUBSTITUTION DERIVATIVES OF N6-BENZYLADENOSINE-5' -MONOPHOSPHATE, METHODS OF PREPARATION THEREOF, USE THEREOF AS MEDICAMENTS, AND THERAPEUTIC PREPARATIONS CONTAINING THESE COMPOUNDS” (BIOAPEX, S.R.O., priority 2010, published 2013).

Tests used:
[1] = test system: K-562 (human erythroleukemia); test: Calcein AM cytotoxicity assay, K-562; format: cell-based; conditions: K-562, 72 hours
Excerpt: (§1) Because toxic compounds negatively influence metabolic processes in cells, many standard cytotoxicity assays are based on measurement of metabolisation rate of various artificial substrates. Resulting product is then quantified e.g. by means of spectrometry. The assays can be easily modified for use in 96-well plates. For evaluation of cytotoxic effect of the novel substituted 9-substituted cytokinin derivatives of this invention, a microtiter assay based on quantification of metabolisation of Calcein AM was used. The assay is widely used in drug screening programs and in chemosensitivity testing. In the living cells, Calcein AM is enzymatically hydrolysed and accumulation of resulting calcein is manifested by green fluorescence.
(§2) Normal human fibroblasts BJ were used as a control for routine screening of the compounds. The cells were kept in Nunc/Corning 80 cm^2 plastic bottles and grown in cell culture medium (DMEM containing 5 g/l glucose, 2 mM glutamine, 100 U/ml penicillin, 100 μg/ml streptomycine, 10% fetal bovine serum and sodium hydrogencarbonate), the compounds were prepared according to the procedure of the present invention.
(§3) The cell suspensions were prepared and diluted according to the particular cell type and the expected target cell density (2.500-30.000 cells per well based on cell growth characteristics) and pippetted (80 μl) into 96-well plates. […] Tested compound was added in total volume of 20 μl of water at time zero. Usually, test compound was evaluated at six 3-fold dilutions. […] All drug concentrations were tested in triplicates. […] At the end of incubation period Calcein AM in PBS was added into final concentration of 1 μg/ml. After another 1 hour of incubation fluorescence (FD) was measured with the Labsystem FIA Reader Fluoroscan Ascent (UK). Growth inhibition (GI) was estimated using the following equitation: GI=(mean FDdrug exposed wells−mean FDblank)/(mean FDcontrol wells−mean FDblank)×100%.

[2] = test system: CEM (T-lymphoblastoid leukemia); test: Calcein AM cytotoxicity assay, CEM; format: cell-based; conditions: 72 hours
Excerpt: as §1, §2, §3

[3] = test system: HL-60 (promyelocytic leukemia); test: Calcein AM cytotoxicity assay, HL60; format: cell-based, human; conditions: HL60, 72 hours
Excerpt: as §1, §2, §3

[4] = test system: Human lymphocytes; test: Immunosuppressive activity, 3H-thymidine incorporation in concanavalin A activated lymphocytes; format: cell-based; conditions: 72 hours, [3H]-TdR
Excerpt: One of the most important parameters of specific cellular immunity is the proliferative response of lymphocytes to antigens or polyclonal mitogens. The majority of normal mammalian peripheral lymphocytes comprise resting cells. Antigens or nonspecific polyclonal mitogens have the capacity to activate lymphoid cells and this is accompanied by dramatic changes of intracellular metabolism (mitochondrial activity, protein synthesis, nucleic acids synthesis, formation of blastic cells and cellular proliferation). […] Variety of in vitro assays was developed to measure proliferative response of lymphocytes. The most commonly used is ^3H-thymidine incorporation method.
During cell proliferation, DNA has to be replicated before the cell is divided into two daughter cells. This close association between cell doublings and DNA synthesis is very attractive for assessing cell proliferation. If labelled DNA precursors are added to the cell culture, cells that are about to divide incorporate the labelled nucleotide into their DNA. Traditionally, those assays usually involve the use of radiolabelled nucleosides, particularly tritiated thymidine ([^3H]-TdR). The amount of [^3H]-TdR incorporated into the cellular DNA is quantified by liquid scintillation counting. Human heparinized peripheral blood was obtained from healthy volunteers by cubital vein punction. The blood was diluted in PBS (1:3) and mononuclear cells were separated by centrifugation in Ficoll-Hypaque density gradient (Pharmacia, 1.077 g/ml) at 2200 rpm for 30 minutes. Following centrifugation, lymphocytes were washed in PBS and resuspended in cell culture medium (RMPI 1640, 2 mM glutamine, 100 U/ml penicillin, 100 μg/ml streptomycin, 10% fetal calf serum and sodium bicarbonate).
The cells were diluted at target density of 1.100.000 cells/ml and were added by pipette (180 μl) into 96-well microtiter plates. Four-fold dilutions of the intended test concentration were added at time zero in 20 μl aliquots to the microtiter plate wells. Usually, test compound was evaluated at six 4-fold dilutions. In routine testing, the highest well concentration was 266.7 μM. All drug concentrations were examined in duplicates. All wells with exception of unstimulated controls were activated with 50 of concanavalin A (25 μg/ml). Incubations of cells with test compounds lasted for 72 hours at 37° C., in 5% CO2 atmosphere and 100% humidity. At the end of incubation period, the cells were assayed by using the [^3H]-TdR:
Cell cultures were incubated with 0.5 μCi (20 μl of stock solution 500 μCi/ml per well for 6 hours at 37° C. and 5% CO2. The automated cell harvester was used to lyse cells in water and adsorb the DNA onto glass-fiber filters in the format of microtiter plate. The DNA incorporated [^3H]-TdR was retained on the filter while unincorporated material passes through. The filters were dried at room temperature overnight, sealed into a sample bag with 10-12 ml of scintillant. The amount of [^3H]-TdR present in each filter (in cpm) was determined by scintillation counting in a Betaplate liquid scintillation counter. The effective dose of immunosuppressant (ED) was calculated using the following equation: ED=(CCPMdrug exposed well/mean CCPMcontrol wells)×100%. The ED50 value, the drug concentration inhibiting proliferation of 50% of lymphocytes, was calculated from the obtained dose response curves.

[5] = test system: MCF-7 (breast carcinoma); test: Calcein AM cytotoxicity assay, MCF7; format: cell-based; conditions: MCF7, 72 hours
Excerpt: as §1, §2, §3

## O=P(O)(O)OC[C@H]1O[C@@H](n2cnc3c(NCc4ccc(F)cc4Cl)ncnc32)[C@H](O)[C@@H]1O [2-chloro-4-fluorobenzylamino, 6-(2-chloro-4-fluorobenzylamino)purine riboside-5′-monophosphate]
[1]
  GI50: 9.6 µM
[2]
  GI50: 12.7 µM
[3]
  GI50: 7.9 µM

## O=P(O)(O)OC[C@H]1O[C@@H](n2cnc3c(NCc4cccc(Cl)c4O)ncnc32)[C@H](O)[C@@H]1O [2-hydroxy-3-chlorobenzylamino, 6-(2-hydroxy-3-chlorobenzylamino)purine riboside-5′-monophosphate]
[4]
  Human lymphocytes ED50: 3.2 µM

## COc1ccc(CNc2ncnc3c2ncn3[C@@H]2O[C@H](COP(=O)(O)O)[C@@H](O)[C@H]2O)c(O)c1 [2-hydroxy-4-methoxybenzylamino, 6-(2-hydroxy-4-methoxybenzylamino)purine riboside-5′-monophosphate]
[4]
  Human lymphocytes ED50: 2.1 µM

## O=P(O)(O)OC[C@H]1O[C@@H](n2cnc3c(NCc4ccc(O)c(O)c4)ncnc32)[C@H](O)[C@@H]1O [3,4-dihydroxybenzylamino, 6-(3,4-dihydroxybenzylamino)purine riboside-5′-monophosphate]
[4]
  Human lymphocytes ED50: 9.4 µM

## O=P(O)(O)OC[C@H]1O[C@@H](n2cnc3c(NCc4ccccc4F)ncnc32)[C@H](O)[C@@H]1O [Compound 1, 6-(2-fluorobenzylamino)purine riboside-5′-monophosphate]
[4]
  Human lymphocytes ED50: 6.3 µM
[1]
  GI50: 31.7 µM
[2]
  GI50: 3.9 µM
[3]
  GI50: 3.3 µM

## O=P(O)(O)OC[C@H]1O[C@@H](n2cnc3c(NCc4ccccc4Cl)ncnc32)[C@H](O)[C@@H]1O [Compound 4, 6-(2-chlorobenzylamino)purine riboside-5′-monophosphate]
[4]
  Human lymphocytes ED50: 8.7 µM
[1]
  GI50: 56 µM
[2]
  GI50: 1.9 µM
[3]
  GI50: 1.4 µM

## O=P(O)(O)OC[C@H]1O[C@@H](n2cnc3c(NCc4cccc(Cl)c4)ncnc32)[C@H](O)[C@@H]1O [Compound 5, 6-(3-chlorobenzylamino)purine riboside-5′-monophosphate]
[4]
  Human lymphocytes ED50: 3.2 µM
[1]
  GI50: 23.4 µM
[2]
  GI50: 1.5 µM
[3]
  GI50: 0.5 µM

## O=P(O)(O)OC[C@H]1O[C@@H](n2cnc3c(NCc4ccc(Cl)cc4)ncnc32)[C@H](O)[C@@H]1O [Compound 6, 6-(4-chlorobenzylamino)purine riboside-5′-monophosphate]
[4]
  Human lymphocytes ED50: 3.3 µM
[1]
  GI50: 12.6 µM
[2]
  GI50: 4.9 µM

## O=P(O)(O)OC[C@H]1O[C@@H](n2cnc3c(NCc4ccccc4Br)ncnc32)[C@H](O)[C@@H]1O [Compound 7, 6-(2-bromobenzylamino)purine riboside-5′-monophosphate]
[1]
  GI50: 9.7 µM
[2]
  GI50: 2.3 µM
[5]
  GI50: 45.6 µM
[3]
  GI50: 5.9 µM

## O=P(O)(O)OC[C@H]1O[C@@H](n2cnc3c(NCc4cccc(Br)c4)ncnc32)[C@H](O)[C@@H]1O [Compound 8, 6-(3-bromoobenzylamino)purine riboside-5′-monophosphate]
[1]
  GI50: 19.1 µM
[2]
  GI50: 5.1 µM
[3]
  GI50: 4.2 µM

## O=P(O)(O)OC[C@H]1O[C@@H](n2cnc3c(NCc4ccc(Br)cc4)ncnc32)[C@H](O)[C@@H]1O [Compound 9, 6-(4-bromobenzylamino)purine riboside-5′-monophosphate]
[1]
  GI50: 49.9 µM
[2]
  GI50: 17.6 µM
[3]
  GI50: 41.3 µM

## Cc1ccccc1CNc1ncnc2c1ncn2[C@@H]1O[C@H](COP(=O)(O)O)[C@@H](O)[C@H]1O [Compound 12, 6-(2-methylbenzylamino)purine riboside-5′-monophosphate]
[4]
  Human lymphocytes ED50: 7.3 µM
[2]
  GI50: 11.4 µM
[5]
  GI50: 144 µM
[3]
  GI50: 3.1 µM

## COc1cccc(CNc2ncnc3c2ncn3[C@@H]2O[C@H](COP(=O)(O)O)[C@@H](O)[C@H]2O)c1 [Compound 16, 6-(3-methoxybenzylamino)purine riboside-5′-monophosphate]
[1]
  GI50: 122 µM
[2]
  GI50: 4.6 µM
[5]
  GI50: 48.1 µM
[3]
  GI50: 5.1 µM

## O=P(O)(O)OC[C@H]1O[C@@H](n2cnc3c(NCc4ccc(O)cc4)ncnc32)[C@H](O)[C@@H]1O [Compound 23, 6-(4-hydroxybenzylamino)purine riboside-5′-monophosphate]
[2]
  GI50: 19.4 µM
[3]
  GI50: 9.7 µM

## O=P(O)(O)OC[C@H]1O[C@@H](n2cnc3c(NCc4ccc(Cl)cc4Cl)ncnc32)[C@H](O)[C@@H]1O [Compound 24]
[1]
  GI50: 81.5 µM
[2]
  GI50: 81.2 µM
[5]
  GI50: 122 µM
[3]
  GI50: 72.4 µM

## COc1cccc(CNc2ncnc3c2ncn3[C@@H]2O[C@H](COP(=O)(O)O)[C@@H](O)[C@H]2O)c1OC [Compound 31, 6-(2,3-dimethoxybenzylamino)purine riboside-5′-monophosphate]
[3]
  GI50: 91 µM

## COc1ccc(CNc2ncnc3c2ncn3[C@@H]2O[C@H](COP(=O)(O)O)[C@@H](O)[C@H]2O)c(OC)c1 [Compound 32, 6-(2,4-dimethoxybenzylamino)purine riboside-5′-monophosphate]
[3]
  GI50: 41 µM

## COc1cc(CNc2ncnc3c2ncn3[C@@H]2O[C@H](COP(=O)(O)O)[C@@H](O)[C@H]2O)cc(OC)c1 [Compound 34, 6-(3,5-dimethoxybenzylamino)purine riboside-5′-monophosphate]
[3]
  GI50: 19.8 µM

## O=P(O)(O)OC[C@H]1O[C@@H](n2cnc3c(NCc4ccc(F)cc4F)ncnc32)[C@H](O)[C@@H]1O [Compound 36, 6-(2,4-difluorobenzylamino)purine riboside-5′-monophosphate]
[1]
  GI50: 5.9 µM
[2]
  GI50: 4.9 µM
[3]
  GI50: 2.8 µM

## O=P(O)(O)OC[C@H]1O[C@@H](n2cnc3c(NCc4cc(F)cc(F)c4)ncnc32)[C@H](O)[C@@H]1O [Compound 37, 6-(3,5-difluorobenzylamino)purine riboside-5′-monophosphate]
[2]
  GI50: 21.1 µM
[3]
  GI50: 6.9 µM

## O=P(O)(O)OC[C@H]1O[C@@H](n2cnc3c(NCc4ccc(F)c(F)c4F)ncnc32)[C@H](O)[C@@H]1O [Compound 38, 6-(2,3,4-trifluorobenzylamino)purine riboside-5′-monophosphate]
[2]
  GI50: 58.6 µM
[3]
  GI50: 11.3 µM

## O=P(O)(O)OC[C@H]1O[C@@H](n2cnc3c(NCc4c(F)ccc(F)c4F)ncnc32)[C@H](O)[C@@H]1O [Compound 40, 6-(2,3,6-trifluorobenzylamino)purine riboside-5′-monophosphate]
[3]
  GI50: 11.3 µM

## O=P(O)(O)OC[C@H]1O[C@@H](n2cnc3c(NCc4ccc(F)c(Cl)c4)ncnc32)[C@H](O)[C@@H]1O [Compound 41, 6-(3-chloro-4-fluorobenzylamino)purine riboside-5′-monophosphate]
[1]
  GI50: 4.3 µM
[2]
  GI50: 1.4 µM
[5]
  GI50: 99.1 µM
[3]
  GI50: 3.1 µM
